Each block holds one compound with its values, some of them ahead of it.
Columns and labels:
calcium-sensing receptor [1] = biological target: T1, calcium-sensing receptor (Homo sapiens, UniProt P41180, R990G); assay: Fura-2 intracellular calcium mobilization, receptor-expressing vs nontransfected HEK293 cells; format: cell-based; set-up: gene CASR; recombinant human receptor stably expressed in HEK293 cells
T1 sequence (P41180 20-1078 R990G): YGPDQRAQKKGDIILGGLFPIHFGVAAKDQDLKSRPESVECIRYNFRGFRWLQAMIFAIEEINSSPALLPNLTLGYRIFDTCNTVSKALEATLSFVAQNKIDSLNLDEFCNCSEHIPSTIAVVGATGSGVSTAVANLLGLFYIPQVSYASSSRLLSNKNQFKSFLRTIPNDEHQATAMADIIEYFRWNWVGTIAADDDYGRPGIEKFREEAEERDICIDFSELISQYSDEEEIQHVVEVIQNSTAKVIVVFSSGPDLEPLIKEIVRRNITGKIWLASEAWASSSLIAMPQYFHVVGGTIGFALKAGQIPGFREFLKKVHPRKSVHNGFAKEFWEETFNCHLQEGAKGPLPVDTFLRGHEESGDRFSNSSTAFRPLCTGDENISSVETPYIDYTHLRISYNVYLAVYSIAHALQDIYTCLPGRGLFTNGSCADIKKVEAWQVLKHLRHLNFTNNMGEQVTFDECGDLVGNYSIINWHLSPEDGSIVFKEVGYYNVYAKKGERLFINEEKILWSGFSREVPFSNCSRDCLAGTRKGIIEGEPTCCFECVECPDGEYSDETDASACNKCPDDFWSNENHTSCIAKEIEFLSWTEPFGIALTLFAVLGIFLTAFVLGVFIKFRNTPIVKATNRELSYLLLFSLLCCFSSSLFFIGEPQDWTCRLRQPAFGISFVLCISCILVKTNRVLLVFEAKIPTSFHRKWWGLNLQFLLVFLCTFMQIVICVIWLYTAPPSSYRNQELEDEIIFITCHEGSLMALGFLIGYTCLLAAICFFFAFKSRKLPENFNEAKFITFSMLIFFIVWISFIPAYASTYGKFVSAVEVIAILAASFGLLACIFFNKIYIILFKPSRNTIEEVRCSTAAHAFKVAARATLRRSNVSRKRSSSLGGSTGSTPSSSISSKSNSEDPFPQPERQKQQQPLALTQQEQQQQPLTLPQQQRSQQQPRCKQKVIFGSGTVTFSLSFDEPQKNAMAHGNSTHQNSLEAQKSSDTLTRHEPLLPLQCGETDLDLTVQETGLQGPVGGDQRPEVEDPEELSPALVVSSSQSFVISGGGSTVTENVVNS

calcium-sensing receptor [2] = biological target: T1, calcium-sensing receptor; assay: Fura-2 intracellular calcium mobilization, receptor-expressing vs nontransfected HEK293 cells, blocked by NPS-2143; format: cell-based; set-up: gene CASR; recombinant human receptor stably expressed in HEK293 cells
calcium-sensing receptor [3] = biological target: T1, calcium-sensing receptor; assay: Fura-2 intracellular calcium mobilization in receptor-expressing HEK293 cells; inhibition of Ca2+-mediated activation at neutral pH (IC50 […] at pH ~[…]); format: cell-based; set-up: gene CASR; recombinant human receptor stably expressed in HEK293 cells
calcium-sensing receptor [4] = biological target: T1, calcium-sensing receptor; set-up: gene CASR

SMILES: N[C@@H](CC(=O)O)C(=O)O [L-aspartate]
Fura-2 intracellular calcium mobilization, receptor-expressing vs nontransfected (calcium-sensing receptor [1]): Concentration-dependent receptor activation by L-glutamate (A) and L-aspartate (B)

Fura-2 intracellular calcium mobilization, receptor-expressing vs nontransfected (calcium-sensing receptor [2]): ~ 5 mM
SMILES: N[C@@H](CCC(=O)O)C(=O)O [L-glutamate]

IC50 (calcium-sensing receptor [3]): ~500 nM
SMILES: CC(C)(Cc1ccc2ccccc2c1)NC[C@@H](O)COc1cccc(Cl)c1C#N [NPS-2143, 2-chloro-6-[(2R)-2-hydroxy-3-[(2-methyl-1-naphthalen-2-ylpropan-2-yl)amino]propoxy]benzonitrile]

SMILES: N[C@@H](CCC(=O)N[C@@H](CS)C(=O)NCC(=O)O)C(=O)O [glutathione]
Fura-2 intracellular calcium mobilization in receptor-expressing HEK293 cells (calcium-sensing receptor [4]): > 3 mM
